This test addresses T1, mouse ATGL I69F/T146G double mutant (Mus musculus, UniProt Q8BJ56, I69F/T146G).
T1 construct: host or cells: Expi293 cells, cell lysate
Briefly: TAG hydrolase assay, humanized mouse ATGL variants. The test is classed as biochemical. The settings on record: I69F/T146G double mutant of mouse ATGL. From the text: The region between aa 60 and 146 of human and mouse ATGL comprises 12 nonidentical aa. We generated 3D homology models for the minimal active domain of mouse ATGL to obtain more detailed insight into the topology of the relevant region (Figure 5d). Based on this model, aa T101, C106, R109, N111, and S133 locate at peripheral (loop) regions (indicated in orange, Figure 5d). […] For all other nonidentical aa (indicated in magenta, Figure 5d), we generated variants with single aa substitutions. The humanized variants A60V, N68K, T93I, and C97F were inactivated by Ai but not NG-497 (Figure 5a).
Figure 6 Identification of the molecular scaffold determining species selectivity. (a) Schematic view of mouse ATGL variants, which are sensitive to NG-497 inhibition. Humanized aa are indicated in red and nonidentical aa are indicated in dark blue. (b) Dose-dependent inhibition of the I69F/T146G double mutant, the I69F/T93I/C97F/T146G quadruple mutant, and human ATGL. (c) Dose-dependent inhibition of triple mutants I69F/T93I/T146G and I69F/C97F/T146G, and human ATGL. IC50 values are shown in the insets. […]
Expression of recombinant ATGL constructs and preparation of cell lysates. […] Protein concentrations were determined using Bio-Rad protein assay (Bio-Rad 785, Bio-Rad Laboratories, Munich, Germany) using BSA as standard. […]

T1 sequence (Q8BJ56 whole entry I69F/T146G): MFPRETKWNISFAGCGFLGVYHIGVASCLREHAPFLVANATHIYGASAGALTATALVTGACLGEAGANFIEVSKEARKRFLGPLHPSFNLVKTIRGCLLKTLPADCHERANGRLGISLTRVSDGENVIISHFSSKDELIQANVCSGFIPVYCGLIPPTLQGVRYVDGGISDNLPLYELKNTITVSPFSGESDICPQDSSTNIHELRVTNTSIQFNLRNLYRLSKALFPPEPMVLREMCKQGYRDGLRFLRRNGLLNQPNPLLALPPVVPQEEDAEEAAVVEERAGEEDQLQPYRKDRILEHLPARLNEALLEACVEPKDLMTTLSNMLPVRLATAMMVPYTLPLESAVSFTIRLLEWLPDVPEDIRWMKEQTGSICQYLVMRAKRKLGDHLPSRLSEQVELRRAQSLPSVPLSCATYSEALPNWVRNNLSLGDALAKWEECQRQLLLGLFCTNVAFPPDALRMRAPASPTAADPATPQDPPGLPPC

Compound `CCOc1ccc(-c2cc(OC)cc(C(=O)OC(C)C)n2)cc1` [NG-497] came in with an IC50 of 9 µM.
